Patent publication US20080118441A1, “COMPOSITIONS AND METHODS FOR THE TREATMENT OF GASTROINTESTINAL CONDITIONS” (priority 2006, published 2008)

System: symptoms of a gastrointestinal condition
Assay: ingestion of glutamine shortly after the present compositions
Format: in vivo
Conditions: glutamine ingested shortly after the compositions
From the text: In one example, the symptoms of a gastrointestinal condition will reappear rapidly if glutamine is ingested shortly after the present compositions. Exclusion of glutamine from the present compositions is therefore contemplated, and it may be advisable for persons being treated with the present compositions to reduce dietary consumption of glutamine, especially within one hour of ingesting the disclosed composition. Typically, an average person consumes 5-10 grams glutamine per day. In one embodiment, a person being treated with the present composition consumes no glutamine within one hour of ingestion, and preferably consumes less than about 5 grams glutamine per day, more preferably less than about 4.5 grams glutamine per day, and most preferably less than about 4 grams glutamine per day.

With `NC(=O)CC[C@H](N)C(=O)O` [glutamine] the “effect on the therapeutic effect of the disclosed compositions” value was “counteracts the therapeutic effect”.
